Experimental data from PubChem BioAssay (NCI).
In brackets after ≈: the same amount, converted by molar mass. Several values for one entry are separate records, joined by “and”; a condition that tells them apart may be missing. Identical values can stand only once.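 Values below derive from 48-hour exposures of cells grown in 96-well plates, with endpoints linearly interpolated between the two concentrations bracketing the appropriate inhibition level. Abbreviation: GI50, concentration required for 50% inhibition of growth. TGI denotes the concentration required for complete inhibition of growth.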 Where a SMILES comes first, the peptide text is derived from it. The star is where a group is joined. Boc = CC(C)(C)OC(=O)*

Columns and labels:
Assay in all cases: NCI anticancer screen, dose series, 48 h
[1] = test system: KM12 colon
[2] = test system: UO-31 renal
[3] = test system: U251 CNS
[4] = test system: SF-295 CNS
[5] = test system: HS 578T breast
[6] = test system: IGROV1 ovarian
[7] = test system: SK-MEL-5 melanoma
[8] = test system: SR leukemia
[9] = test system: RXF 393 renal
[10] = test system: EKVX NSCLC

Cc1[nH]c(=O)nc(NNCc2ccc(Cl)cc2)c1C(=O)Nc1ccc(Cl)cc1
TGI [1]: > 100 µM
TGI [2]: > 100 µM
TGI [3]: > 100 µM
TGI [4]: > 100 µM
TGI [5]: > 100 µM
TGI [6]: > 100 µM
TGI [7]: > 100 µM
TGI [8]: > 100 µM
TGI [9]: > 100 µM

CC(=O)Oc1ccc2c3c1O[C@H]1[C@H](O)CC[C@@]4(O)[C@@H](C2)N(C)CC[C@]314
TGI [1]: > 100 µM
TGI [2]: > 100 µM
TGI [3]: > 100 µM
TGI [4]: > 100 µM
TGI [10]: > 100 µM
TGI [5]: > 100 µM
TGI [6]: > 100 µM
TGI [7]: > 100 µM
TGI [8]: > 100 µM

O=C(NNC(=O)c1csc(NC(=S)NC2CCCCC2)n1)c1ccccc1
TGI [1]: 28.8 µM
TGI [2]: 28.3 µM
TGI [3]: 20.4 µM
TGI [4]: 51.9 µM
TGI [10]: 28.4 µM
TGI [6]: 17.7 µM
TGI [7]: 19.7 µM
TGI [8]: > 100 µM

C#CC1(O)CCCCCCCCC2(CCCCCCCC1)OCCO2
TGI [1]: 34.6 µM
TGI [3]: 30.8 µM
TGI [4]: 34.7 µM
TGI [10]: 32.6 µM
TGI [5]: 38.9 µM
TGI [6]: 30.3 µM
TGI [7]: 33.4 µM
TGI [8]: 34.3 µM
TGI [9]: 24.5 µM

Cc1cccc(N/C(Sc2ccccc2)=C(/C(Cl)=C(Cl)Cl)[N+](=O)[O-])c1
TGI [1]: 48.6 µM
TGI [2]: 29.9 µM
TGI [3]: 31.9 µM
TGI [4]: 36.2 µM
TGI [10]: 42.7 µM

Cc1cnc2[nH]c(-c3ccc4ccccc4c3)cc(=O)c2c1
TGI [1]: > 100 µM
TGI [2]: > 100 µM
GI50 [3]: 0.464 µM
TGI [3]: > 100 µM
GI50 [4]: 0.549 µM
TGI [4]: > 100 µM
TGI [5]: > 100 µM
TGI [6]: > 100 µM
GI50 [7]: 0.359 µM
TGI [7]: > 100 µM

COc1cc2c(c(OC)c1OC)-c1ccc(SC)cc1C(O)CC2 (stereo not drawn)
TGI [1]: < 0.01 µM
TGI [4]: 83.7 µM
TGI [10]: > 100 µM
TGI [6]: > 100 µM
TGI [7]: 1.11 µM and 15.1 µg/mL
TGI [8]: 34.7 µg/mL
GI50 [9]: 16.2 µg/mL (≈ 46.7 µM)

COc1ccc(-c2c(C#N)c(S)n(NS(=O)(=O)c3ccccc3)c(=O)c2C#N)cc1
TGI [1]: > 100 µM
TGI [2]: > 100 µM
TGI [3]: > 100 µM
TGI [4]: > 100 µM
TGI [5]: > 100 µM
TGI [6]: > 100 µM
TGI [7]: > 100 µM
TGI [8]: 80.3 µM
TGI [9]: > 100 µM

COc1ccc2nc3cccc([N+](=O)[O-])c3c(NCCCO)c2c1
GI50 [1]: 0.00183 µM
TGI [1]: 0.0146 µM and 0.0141 µM
GI50 [2]: 0.0017 µM
TGI [2]: 0.00749 µM and 0.0237 µM
TGI [3]: 0.108 µM and 0.16 µM
GI50 [4]: 0.00799 µM and 0.0319 µM
GI50 [5]: 0.00445 µM and 0.033 µM
TGI [6]: 0.0313 µM and 0.29 µM
TGI [7]: 0.00431 µM
GI50 [8]: 0.0288 µM
TGI [9]: 0.00255 µM

O=C1CC(=O)NC(=NNS(=O)(=O)c2ccc(Cl)cc2)N1
TGI [1]: > 100 µM
TGI [2]: > 100 µM
TGI [3]: > 100 µM
TGI [4]: > 100 µM
TGI [5]: > 100 µM
TGI [6]: > 100 µM
TGI [7]: > 100 µM
TGI [8]: > 100 µM
TGI [9]: > 100 µM

CCCCCCCCCCCCCCCCCCOCC(O)COP(=O)(O)OCC1OC(n2ccc(N)nc2=O)C(O)C1O (stereo not drawn)
TGI [1]: 41 µM
TGI [3]: 30.2 µM
TGI [4]: 68.8 µM
TGI [10]: > 100 µM
TGI [5]: > 100 µM
TGI [6]: 28.5 µM
TGI [7]: > 100 µM
TGI [8]: 40.4 µM
TGI [9]: 33.3 µM

O=c1oc2c(Cl)cc(Cl)cc2cc1C1=CSC2=NCCN12
TGI [1]: > 100 µM
TGI [2]: > 100 µM
TGI [3]: > 100 µM
TGI [4]: > 100 µM
TGI [10]: > 100 µM
TGI [6]: > 100 µM
TGI [7]: 88.8 µM
TGI [8]: > 100 µM
TGI [9]: > 100 µM

COC(=O)[C@H](Cc1ccc(O)cc1)NC(=O)[C@H](Cc1ccc(O)cc1)NC(=O)OC(C)(C)C (Boc-Tyr-Tyr-OMe)
TGI [1]: > 100 µM
TGI [2]: > 100 µM
TGI [4]: > 100 µM
TGI [10]: > 100 µM
TGI [5]: > 100 µM
TGI [6]: > 100 µM
TGI [7]: > 100 µM
TGI [9]: > 100 µM

CC1(C)N=C(C2CCCN2C(=O)OCc2ccccc2)OC1=O (stereo not drawn)
TGI [1]: > 100 µM
TGI [2]: > 100 µM
TGI [3]: > 100 µM
TGI [4]: > 100 µM
TGI [5]: > 100 µM
TGI [6]: > 100 µM
TGI [7]: > 100 µM
TGI [9]: 85.1 µM

COc1ccccc1C1c2cc3c(cc2OC(N2CCOCC2)C1C)OCO3 (stereo not drawn)
TGI [1]: 39.6 µM
TGI [2]: 42.8 µM
TGI [4]: 35.5 µM
TGI [10]: 89.6 µM
TGI [5]: 39 µM
TGI [6]: 81.7 µM
TGI [7]: 31.2 µM
TGI [8]: 52.9 µM

O=C(N/N=C(/COc1ccccc1)N=Cc1cccnc1)c1ccncc1
TGI [1]: > 100 µM
TGI [3]: > 100 µM
TGI [4]: > 100 µM
TGI [10]: > 100 µM
TGI [5]: > 100 µM
TGI [6]: > 100 µM
TGI [9]: > 100 µM

Cc1ccc(C(=O)N/N=C(\N=Nc2ccc(C(=O)O)cc2)c2ccc(N(CCC#N)CCC#N)cc2C)cc1
TGI [1]: > 100 µM
TGI [2]: > 100 µM
TGI [3]: > 100 µM
TGI [4]: > 100 µM
TGI [10]: > 100 µM
TGI [7]: > 100 µM
TGI [8]: > 100 µM
TGI [9]: > 100 µM

CC(=O)Nc1cccc(N=NN(C)C)c1
TGI [1]: > 100 µM
TGI [2]: > 100 µM
TGI [3]: > 100 µM
TGI [4]: > 100 µM
TGI [10]: > 100 µM
TGI [6]: > 100 µM
TGI [7]: > 100 µM
TGI [9]: > 100 µM

Cc1ccc(N(C)S(=O)(=O)c2ccccc2[N+](=O)[O-])cc1
TGI [1]: > 100 µM
TGI [2]: > 100 µM
TGI [3]: > 100 µM
TGI [4]: > 100 µM
TGI [10]: > 100 µM
TGI [8]: > 100 µM
TGI [9]: > 100 µM

CC(=O)OC(Cc1c(O)c2c(C)cccc2oc1=O)C(C)(C)O (stereo not drawn)
TGI [1]: > 100 µM
TGI [2]: > 100 µM
TGI [3]: > 100 µM
TGI [4]: > 100 µM
TGI [10]: > 100 µM
TGI [5]: > 100 µM
TGI [6]: > 100 µM
TGI [7]: > 100 µM
TGI [8]: > 100 µM

CC(=O)N(C(C)=O)c1cc2c3c(c1)CCCN3CCC2
TGI [1]: > 10 µM
TGI [3]: > 10 µM
TGI [4]: > 10 µM
TGI [10]: > 10 µM
TGI [5]: > 10 µM
TGI [6]: > 10 µM
TGI [7]: > 10 µM
TGI [8]: > 10 µM
TGI [9]: > 10 µM

CC(Cl)CC(=O)OCC1CCCN2CCCCC12 (stereo not drawn)
TGI [1]: > 100 µM
TGI [2]: > 100 µM
TGI [3]: > 100 µM
TGI [4]: > 100 µM
TGI [10]: > 100 µM
TGI [5]: > 100 µM
TGI [7]: > 100 µM
TGI [9]: > 100 µM

CNc1nc(C(N)=O)c(N)s1
TGI [1]: > 100 µM
TGI [2]: > 100 µM
TGI [3]: > 100 µM
TGI [4]: > 100 µM
TGI [10]: > 100 µM
TGI [5]: > 100 µM
TGI [6]: > 100 µM
TGI [7]: > 100 µM
TGI [9]: > 100 µM
